Laboratory results taken from patent US10131652B2, “Pyrimidinyloxy benzene derivatives as herbicides” (E. I. DU PONT DE NEMOURS AND COMPANY, priority 2014, dated 2018).
Where two headings read alike, the source gives them in different places.

Assays:
Type in all cases: in vivo
[1] = test system: morningglory (Ipomoea spp.); test: Test B pre-/postemergence plant response; conditions: Ipomoea, 240 h, read-out: Plant response rating, Morningglory; for pest or weed control at 125 g/ha: 125 g ai/ha; for pest or weed control at 500 g/ha: 500 g ai/ha; for pest or weed control at 1000 g/ha: 1000 g ai/ha
How it was run: (§1)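 Evaluation is visual, about 10 days after application, rating injury from 0 (none) to 100 (complete control) relative to untreated controls. Application was a preemergence soil spray on seeded pots or a postemergence spray on one- to two-leaf plants.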

[2] = test system: velvetleaf (Abutilon theophrasti); test: Test B pre-/postemergence plant response; conditions: Abutilon theophrasti, 240 h, read-out: Plant response rating, Velvetleaf; for pest or weed control at 125 g/ha: 125 g ai/ha; for pest or weed control at 500 g/ha: 500 g ai/ha; for pest or weed control at 1000 g/ha: 1000 g ai/ha
How it was run: as §1

[3] = test system: large (Lg) crabgrass (Digitaria sanguinalis); test: Test B pre-/postemergence plant response; conditions: Digitaria sanguinalis, 240 h, read-out: Plant response rating, Crabgrass, Large; for pest or weed control at 125 g/ha: 125 g ai/ha; for pest or weed control at 500 g/ha: 500 g ai/ha; for pest or weed control at 1000 g/ha: 1000 g ai/ha
How it was run: as §1

corn (Zea mays) = test: Test F pre-/postemergence plant response; conditions: scale 0 to 100
How it was run: (§2)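 Plant response is a visual score from 0, meaning no effect, to 100, meaning complete control, assigned by comparison with untreated plants. Ratings were made 14 to 21 days after preemergence application to seeded silt loam or postemergence application to plants at the 1- to 4-leaf stage.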

[4] = test system: Brazilian crabgrass (Digitaria horizontalis); test: Test F pre-/postemergence plant response; conditions: scale 0 to 100
How it was run: as §2

[5] = test system: ragweed (common ragweed, Ambrosia elatior); test: Test F pre-/postemergence plant response; conditions: scale 0 to 100
How it was run: as §2

[6] = test system: fall panicum (Panicum dichotomiflorum); test: Test F pre-/postemergence plant response; conditions: scale 0 to 100
How it was run: as §2

[7] = post-emergence, postemergence, 0 to 100 scale, 0 no effect, 100 complete control
[8] = post-emergence, Postemergence, 0 to 100 scale (0 no effect, 100 complete control)
[9] = pre-emergence, Preemergence, 0 to 100 scale where 0 is no effect and 100 is complete control
[10] = pre-emergence, Preemergence, 0 to 100 scale (0 no effect, 100 complete control)

SMILES	pest or weed control at 125 g/ha [1, 7] [%]	pest or weed control at 500 g/ha [1, 8] [%]	pest or weed control at 125 g/ha [1, 9] [%]	pest or weed control at 500 g/ha [1, 10] [%]	pest or weed control at 125 g/ha [2, 7] [%]	pest or weed control at 500 g/ha [2, 8] [%]	pest or weed control at 125 g/ha [2, 9] [%]	pest or weed control at 500 g/ha [2, 10] [%]	pest or weed control at 125 g/ha [3, 7] [%]	pest or weed control at 500 g/ha [3, 8] [%]	pest or weed control at 125 g/ha [3, 9] [%]	pest or weed control at 500 g/ha [3, 10] [%]	pest or weed control at 500 g/ha [1, 9] [%]	pest or weed control at 500 g/ha [2, 9] [%]	pest or weed control at 500 g/ha [3, 9] [%]	also measured
FC(F)(F)c1nccc(-c2ccccc2Oc2ncc(Br)cn2)n1 [Compound 21, 4-[2-[(5-bromo-2-pyrimidinyl)oxy]phenyl]-2-(trifluoromethyl)pyrimidine]	20	90	0	0	20	40	0	20	0	30	60	100	–	–	–	–
Cc1ccc(Oc2ncc(Cl)cn2)c(-c2ccc(C(F)(F)F)nc2)c1 [Compound 22, 5-chloro-2-[4-methyl-2-[6-(trifluoromethyl)-3-pyridinyl]phenoxy]pyrimidine]	0	10	0	0	50	60	0	0	0	10	0	0	–	–	–	–
Clc1ccc(-c2c(Cl)cccc2Oc2ncc(Cl)cn2)nc1 [Compound 23, 5-chloro-2-[3-chloro-2-(5-chloro-2-pyridinyl)phenoxy]pyrimidine]	20	40	0	0	40	70	10	50	10	50	40	80	–	–	–	pest or weed control at 1000 g/ha [1, 8]: 70%; pest or weed control at 1000 g/ha [1, 10]: 0%; pest or weed control at 1000 g/ha [2, 8]: 70%; pest or weed control at 1000 g/ha [2, 10]: 80%; pest or weed control at 1000 g/ha [3, 8]: 60%; pest or weed control at 1000 g/ha [3, 10]: 100%
Cc1ccc(Oc2ncc(Cl)cn2)c(-c2ccnc(C(F)(F)F)c2)c1 [Compound 24, 5-chloro-2-[4-methyl-2-[2-(trifluoromethyl)-4-pyridinyl]phenoxy]pyrimidine]	50	100	0	0	40	70	0	0	80	90	100	100	–	–	–	–
FC(F)(F)c1ccnc(-c2ccccc2Oc2ncc(Cl)cn2)c1 [Compound 25, 5-chloro-2-[2-[4-(trifluoromethyl)-2-pyridinyl]phenoxy]pyrimidine]	10	70	0	–	20	80	10	–	10	50	50	–	10	100	100	–
FC(F)(F)c1ccc(-c2ccccc2Oc2ncc(Cl)cn2)nc1 [Compound 27, 5-chloro-2-[2-[5-(trifluoromethyl)-2-pyridinyl]phenoxy]pyrimidine]	10	50	0	–	70	100	20	–	20	90	80	–	0	60	100	–
FCc1cc(-c2ccccc2Oc2ncc(Cl)cn2)no1 [Compound 32, 5-chloro-2-[2-[5-(fluoromethyl)-3-isoxazolyl]phenoxy]pyrimidine]	70	90	0	–	90	100	90	–	60	90	100	–	30	100	100	–
FC(F)(F)Oc1ccc(-c2ccccc2Oc2ncc(Cl)cn2)cc1 [Compound 42, 5-chloro-2-[[4′-(trifluoromethoxy)[1,1′-biphenyl]-2-yl]oxy]pyrimidine]	20	60	0	–	100	100	50	–	30	50	50	–	0	70	90	–
FC(F)(F)c1cc(-c2ccccc2Oc2ncc(Cl)cn2)on1 [Compound 63, 5-chloro-2-[2-[3-(trifluoromethyl)-5-isoxazolyl]phenoxy]pyrimidine]	100	100	30	–	100	100	70	–	80	90	100	–	60	90	100	–
FC(F)c1cc(-c2ccccc2Oc2ncc(Br)cn2)on1 [Compound 212]	–	–	–	–	–	–	–	–	–	–	–	–	–	–	–	Plant response rating, Corn (corn (Zea mays); 16 g ai/ha Postemergence): 0; Plant response rating, Corn (corn (Zea mays); 31 g ai/ha Postemergence): 0; Plant response rating, Corn (corn (Zea mays); 62 g ai/ha Postemergence): 0; Plant response rating, Corn (corn (Zea mays); 125 g ai/ha Postemergence): 0; Plant response rating, Crabgrass, Brazil ([4]; 16 g ai/ha Postemergence): 20; Plant response rating, Crabgrass, Brazil ([4]; 31 g ai/ha Postemergence): 30; Plant response rating, Crabgrass, Brazil ([4]; 62 g ai/ha Postemergence): 30; Plant response rating, Crabgrass, Brazil ([4]; 125 g ai/ha Postemergence): 35; Plant response rating, Ragweed ([5]; 16 g ai/ha Postemergence): 20; Plant response rating, Ragweed ([5]; 31 g ai/ha Postemergence): 20; Plant response rating, Ragweed ([5]; 62 g ai/ha Postemergence): 30; Plant response rating, Ragweed ([5]; 125 g ai/ha Postemergence): 50; Plant response rating, Panicum, Fall ([6]; 16 g ai/ha Postemergence): 0; Plant response rating, Panicum, Fall ([6]; 31 g ai/ha Postemergence): 0; Plant response rating, Panicum, Fall ([6]; 62 g ai/ha Postemergence): 10; Plant response rating, Panicum, Fall ([6]; 125 g ai/ha Postemergence): 10
